Measurements published in patent publication US10597388B2, “Pyridazinone herbicides” (FMC CORPORATION, priority 2014, dated 2020).

Experiments:
Assay in all cases: Test E greenhouse herbicide test, pre- and postemergence
Assay type in all cases: in vivo
Conditions in all cases: Postemergence
[1] = test system: Italian ryegrass (Lolium multiflorum)
Source text: (§1) Seeds of plant species selected from corn (Zea mays), soybean (Glycine max), velvetleaf (Abutilon theophrasti), lambsquarters (Chenopodium album), wild poinsettia (Euphorbia heterophylla), pigweed, palmer (palmer pigweed, Amaranthus palmeri), waterhemp (common waterhemp, Amaranthus rudis), surinam grass (Brachiaria decumbens), crabgrass, large (large crabgrass, Digitaria sanguinalis), crabgrass, Brazilian (Brazilian crabgrass, Digitaria horizontalis), panicum, fall (fall panicum, Panicum dichotomiflorum), foxtail, giant (giant foxtail, Setaria faberii), foxtail, green (green foxtail, Setaria viridis), goosegrass (Eleusine indica), johnsongrass (Sorghum halepense), ragweed (common ragweed, Ambrosia elatior), barnyardgrass (Echinochloa crus-galli), sandbur (southem sandbur, Cenchrus echinatus), arrowleaf sida (Sida rhombifolia), Italian ryegrass (Lolium multiflorum), dayflower (Virginia (VA) dayflower, Commelina virginica), field bindweed (Convolvulus arvensis), momingglory (Ipomoea coccinea), nightshade (eastern black nightshade, Solanum ptycanthum), kochia (Kochia scoparia), nutsedge, yellow (yellow nutsedge, Cyperus esculentus), horseweed (Conyza canadensis), and beggarticks (hairy beggarticks, Bidens pilosa), were planted into a silt loam soil and treated preemergence with test chemicals formulated in a non-phytotoxic solvent mixture which included a surfactant.
(§2) At the same time, plants from these crop and weed species and also waterhemp_RES1, (ALS & Triazine resistant common waterhemp, Amaranthus rudis), and waterhemp_RES2, (ALS & HPPD resistant common waterhemp, Amaranthus rudis) were planted in pots containing Redi-Earth® planting medium (Scotts Company, 14111 Scottslawn Road, Marysville, Ohio 43041) comprising spaghnum peat moss, vermiculite, wetting agent and starter nutrients were treated with postemergence applications of test chemicals formulated in the same manner. Plants ranged in height from 2 to 18 cm for postemergence treatments (1- to 4-leaf stage). Treated plants and controls were maintained in a greenhouse for 14 to 21 d, after which time all species were compared to controls and visually evaluated. Plant response ratings, summarized in Table E, are based on a scale of 0 to 100 where 0 is no effect and 100 is complete control. A dash (-) response means no test result.

[2] = test system: crabgrass, Brazilian (Brazilian crabgrass, Digitaria horizontalis)
Source text: as §1, §2

[3] = test system: barnyardgrass (Echinochloa crus-galli)
Source text: as §1, §2

[4] = test system: panicum, fall (fall panicum, Panicum dichotomiflorum)
Source text: as §1, §2

soybean (Glycine max) = test system: soybean (Glycine max)
Source text: as §1, §2

[5] = test system: arrowleaf sida (Sida rhombifolia)
Source text: as §1, §2

[6] = test system: ragweed (common ragweed, Ambrosia elatior)
Source text: as §1, §2

corn (Zea mays) = test system: corn (Zea mays)
Source text: as §1, §2

[7] = test system: dayflower (Virginia (VA) dayflower, Commelina virginica)
Source text: as §1, §2

[8] = test system: horseweed (Conyza canadensis)
Source text: as §1, §2

[9] = test system: sandbur (southem sandbur, Cenchrus echinatus)
Source text: as §1, §2

[10] = 62 g ai/ha, scale 0 to 100 (0 no effect, 100 complete control)
[11] = 125 g ai/ha, scale 0 to 100 (0 no effect, 100 complete control)
[12] = 16 g ai/ha, visual, scale 0 no effect to 100 complete control
[13] = 31 g ai/ha, visual, scale 0 no effect to 100 complete control
[14] = 250 g ai/ha, scale 0 to 100 (0 no effect, 100 complete control)

CC(=O)Oc1c(C)nn(C)c(=O)c1-c1c(C)cc(C)c2ccccc12 [Compound 99]
Plant response rating, Ryegrass, Italian [1, 10]: 70
Plant response rating, Ryegrass, Italian [1, 11]: 80
Plant response rating, Ryegrass, Italian [1, 12]: 40
Plant response rating, Ryegrass, Italian [1, 13]: 50
Plant response rating, Crabgrass, Brazil [2, 10]: 10
Plant response rating, Crabgrass, Brazil [2, 11]: 20
Plant response rating, Crabgrass, Brazil [2, 12]: 5
Plant response rating, Crabgrass, Brazil [2, 13]: 10
Plant response rating, Barnyardgrass [3, 10]: 40
Plant response rating, Barnyardgrass [3, 11]: 50
Plant response rating, Barnyardgrass [3, 12]: 40
Plant response rating, Barnyardgrass [3, 13]: 30
Plant response rating, Panicum, Fall [4, 10]: 50
Plant response rating, Panicum, Fall [4, 11]: 70
Plant response rating, Panicum, Fall [4, 12]: 20
Plant response rating, Panicum, Fall [4, 13]: 30
Plant response rating, Soybean (soybean (Glycine max); [11]): 30
Plant response rating, Soybean (soybean (Glycine max); [12]): 0
Plant response rating, Soybean (soybean (Glycine max); [13]): 0
Plant response rating, Arrowleaf Sida [5, 10]: 50
Plant response rating, Arrowleaf Sida [5, 11]: 60
Plant response rating, Arrowleaf Sida [5, 12]: 10
Plant response rating, Arrowleaf Sida [5, 13]: 30
Plant response rating, Ragweed [6, 10]: 80
Plant response rating, Ragweed [6, 11]: 90
Plant response rating, Ragweed [6, 12]: 50
Plant response rating, Ragweed [6, 13]: 75
Plant response rating, Corn (corn (Zea mays); [10]): 0
Plant response rating, Corn (corn (Zea mays); [11]): 0
Plant response rating, Corn (corn (Zea mays); [12]): 0
Plant response rating, Corn (corn (Zea mays); [13]): 0
Plant response rating, Dayflower, VA [7, 10]: 70
Plant response rating, Dayflower, VA [7, 11]: 75
Plant response rating, Dayflower, VA [7, 12]: 40
Plant response rating, Dayflower, VA [7, 13]: 60
Plant response rating, Horseweed [8, 10]: 60
Plant response rating, Horseweed [8, 11]: 75
Plant response rating, Horseweed [8, 12]: 40
Plant response rating, Horseweed [8, 13]: 50
Plant response rating, Sandbur [9, 11]: 40
Plant response rating, Sandbur [9, 12]: 20
Plant response rating, Sandbur [9, 13]: 30

Cc1nn(C)c(=O)c(-c2cccc3ccc(Br)cc23)c1O [Compound 126]
Plant response rating, Ryegrass, Italian [1, 10]: 80
Plant response rating, Ryegrass, Italian [1, 11]: 85
Plant response rating, Ryegrass, Italian [1, 14]: 90
Plant response rating, Ryegrass, Italian [1, 13]: 70
Plant response rating, Crabgrass, Brazil [2, 10]: 25
Plant response rating, Crabgrass, Brazil [2, 11]: 40
Plant response rating, Crabgrass, Brazil [2, 14]: 50
Plant response rating, Crabgrass, Brazil [2, 13]: 10
Plant response rating, Barnyardgrass [3, 10]: 50
Plant response rating, Barnyardgrass [3, 11]: 40
Plant response rating, Barnyardgrass [3, 14]: 30
Plant response rating, Barnyardgrass [3, 13]: 40
Plant response rating, Panicum, Fall [4, 10]: 35
Plant response rating, Panicum, Fall [4, 11]: 30
Plant response rating, Panicum, Fall [4, 14]: 35
Plant response rating, Panicum, Fall [4, 13]: 10
Plant response rating, Soybean (soybean (Glycine max); [11]): 40
Plant response rating, Soybean (soybean (Glycine max); [14]): 30
Plant response rating, Soybean (soybean (Glycine max); [13]): 10
Plant response rating, Arrowleaf Sida [5, 10]: 80
Plant response rating, Arrowleaf Sida [5, 11]: 100
Plant response rating, Arrowleaf Sida [5, 14]: 85
Plant response rating, Arrowleaf Sida [5, 13]: 75
Plant response rating, Ragweed [6, 10]: 80
Plant response rating, Ragweed [6, 11]: 100
Plant response rating, Ragweed [6, 14]: 100
Plant response rating, Ragweed [6, 13]: 70
Plant response rating, Corn (corn (Zea mays); [10]): 10
Plant response rating, Corn (corn (Zea mays); [11]): 5
Plant response rating, Corn (corn (Zea mays); [14]): 5
Plant response rating, Corn (corn (Zea mays); [13]): 0
Plant response rating, Dayflower, VA [7, 10]: 20
Plant response rating, Dayflower, VA [7, 11]: 50
Plant response rating, Dayflower, VA [7, 14]: 50
Plant response rating, Dayflower, VA [7, 13]: 0
Plant response rating, Horseweed [8, 10]: 75
Plant response rating, Horseweed [8, 11]: 85
Plant response rating, Horseweed [8, 14]: 80
Plant response rating, Horseweed [8, 13]: 70
Plant response rating, Sandbur [9, 11]: 40
Plant response rating, Sandbur [9, 14]: 40
Plant response rating, Sandbur [9, 13]: 0
